Laboratory results as given in patent US11000033B2, “Ketone or oxime compound, and herbicide” (NISSAN CHEMICAL CORPORATION, priority 2014, dated 2021).

Experiments:
Assay type in all cases: in vivo
rice plant = assay: Test Example 5: effect on crop by foliage application, plastic box (symbol b); conditions: 320 g/ha, 3 weeks after application
How it was run: (§1)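 Sterilized diluvial soil, plastic box (21 × 13 × 7 cm); spot sowing, ~1.5 cm soil cover; greenhouse 25–30° C.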

Digitaria ciliaris [1] = assay: Test Example 4: herbicidal effect by soil treatment (symbol F); conditions: application herbicide amount 320 g/ha
How it was run: (§2)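 Seeds were sown in sterilized diluvial soil, covered with about 1.5 cm of soil, and the soil surface was sprayed with a water-diluted emulsion of the compound at a predetermined rate. Plants grew in a greenhouse at 25° C. to 30° C.; effects were scored visually 3 weeks after application.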

Avena fatua = assay: Test Example 4: herbicidal effect by soil treatment (symbol I); conditions: application herbicide amount 320 g/ha
How it was run: as §2

Veronica persica [2] = assay: Test Example 4: herbicidal effect by soil treatment (symbol R); conditions: application herbicide amount 320 g/ha
How it was run: as §2

Veronica persica [3] = assay: Test Example 5: herbicidal effect by foliage application, plastic box (symbol R); conditions: 320 g/ha, 3 weeks after application
How it was run: (§3)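 Herbicide, formulated as an emulsion and diluted in water, is sprayed onto the aerial parts of 14-day seedlings. These were grown at 25° C. to 30° C. in sterilized diluvial soil; effects are graded after 3 weeks.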

beet [4] = assay: Test Example 5: effect on crop by foliage application, plastic box (symbol f); conditions: 320 g/ha, 3 weeks after application
How it was run: as §1

Digitaria ciliaris [5] = assay: Test Example 5: herbicidal effect by foliage application, plastic box (symbol F); conditions: 320 g/ha, 3 weeks after application
How it was run: as §3

soybean = assay: Test Example 5: effect on crop by foliage application, plastic box (symbol d); conditions: 320 g/ha, 3 weeks after application
How it was run: as §1

Alopecurus myosuroides = assay: Test Example 4: herbicidal effect by soil treatment (symbol J); conditions: application herbicide amount 320 g/ha
How it was run: as §2

[6] = system: Echinochloa crus-galli var. crus-galli; assay: Test Example 3: herbicidal effect by foliage application, Wagner pot (symbol H); conditions: application herbicide amount 320 g/ha
How it was run: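 Foliar spray of water-diluted emulsion formulation at a predetermined herbicide amount onto 14-day-old plants in flooded alluvial soil (water depth 0.1–0.5 cm), greenhouse 25–30 °C; rice sown alongside. Scored 3 wk post-application on set criteria.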

Abutilon theophrasti [7] = assay: Test Example 4: herbicidal effect by soil treatment (symbol M); conditions: application herbicide amount 320 g/ha
How it was run: as §2

[8] = system: Echinochloa oryzacola Vasing.; assay: Test Example 2: herbicidal activity, application during weed generation in submerged conditions (symbol A); conditions: Table 23; application herbicide amount 320 g/ha; grade 0-5 by criteria of Test Example 1
How it was run: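 Paddy pot test, submerged (4 cm water), alluvial soil, mixed sowing; greenhouse 25–30° C. Emulsion formulation diluted to predetermined rate, applied onto floodwater at 1–2 leaf stage. Visual herbicidal rating at 3 wk post-treatment.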

Amaranthus retroflexus = assay: Test Example 5: herbicidal effect by foliage application, plastic box (symbol N); conditions: 320 g/ha, 3 weeks after application
How it was run: as §3

Abutilon theophrasti [9] = assay: Test Example 5: herbicidal effect by foliage application, plastic box (symbol M); conditions: 320 g/ha, 3 weeks after application
How it was run: as §3

Apera spica-venti = assay: Test Example 5: herbicidal effect by foliage application, plastic box (symbol L); conditions: 320 g/ha, 3 weeks after application
How it was run: as §3

beet [10] = assay: Test Example 4: effect on crop by soil treatment (symbol f); conditions: application herbicide amount 320 g/ha
How it was run: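 Diluvial soil (sterilized) in boxes; seeds placed spot-wise alongside weed species; ~1.5 cm covering soil. Greenhouse, 25–30° C.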

Row | SMILES | b: directly sowed rice plant, effect on crop grade (rice plant) | F (Digitaria ciliaris) herbicidal effect grade (Digitaria ciliaris [1]) | I (Avena fatua) herbicidal effect grade (Avena fatua) | R (Veronica persica) herbicidal effect grade (Veronica persica [2]) | R: Veronica persica, herbicidal effect grade (Veronica persica [3]) | f: beet, effect on crop grade (beet [4]) | F: Digitaria ciliaris, herbicidal effect grade (Digitaria ciliaris [5]) | d: soybean, effect on crop grade (soybean) | J (Alopecurus myosuroides) herbicidal effect grade (Alopecurus myosuroides) | herbicidal effect on H (Echinochloa crus-galli var. crus-galli), grade 0-5 [6] | M (Abutilon theophrasti) herbicidal effect grade (Abutilon theophrasti [7]) | Herbicidal effect grade, A: Echinochloa oryzacola Vasing. [8] | N: Amaranthus retroflexus, herbicidal effect grade (Amaranthus retroflexus) | M: Abutilon theophrasti, herbicidal effect grade (Abutilon theophrasti [9]) | L: Apera spica-venti, herbicidal effect grade (Apera spica-venti) | f (beet) effect on crop grade (beet [10])
1 | COCCON=C(C)CC1CC(O)=C(c2c(C)cc(C)cc2C)C1=O (stereo not drawn) [1-041] | 5 (Herbicidal ratio of 90% or more (almost completely withered)) | 5 (Herbicidal ratio of 90% or more (almost completely withered)) | 5 (Herbicidal ratio of 90% or more (almost completely withered)) | 3 (Herbicidal ratio of 40% or higher and lower than 70%) | 3 (Herbicidal ratio of 40% or higher and lower than 70%) | 1 (Herbicidal ratio of 5% or higher and lower than 20%) | 5 (Herbicidal ratio of 90% or more (almost completely withered)) | 4 (Herbicidal ratio of 70% or higher and lower than 90%) | 5 (Herbicidal ratio of 90% or more (almost completely withered)) | 5 (Herbicidal ratio of 90% or more (almost completely withered)) | 3 (Herbicidal ratio of 40% or higher and lower than 70%) | 5 (Herbicidal ratio of 90% or more (almost completely withered)) | 3 (Herbicidal ratio of 40% or higher and lower than 70%) | 4 (Herbicidal ratio of 70% or higher and lower than 90%) | 5 (Herbicidal ratio of 90% or more (almost completely withered)) | –
2 | CC(CC1CC(O)=C(c2c(C)cc(C)cc2C)C1=O)=NOCC[Si](C)(C)C (stereo not drawn) [1-055] | 5 (Herbicidal ratio of 90% or more (almost completely withered)) | 5 (Herbicidal ratio of 90% or more (almost completely withered)) | 0 (Herbicidal ratio of 5% or lower (almost no effect)) | 0 (Herbicidal ratio of 5% or lower (almost no effect)) | – | 0 (Herbicidal ratio of 5% or lower (almost no effect)) | 3 (Herbicidal ratio of 40% or higher and lower than 70%) | 2 (Herbicidal ratio of 20% or higher and lower than 40%) | 1 (Herbicidal ratio of 5% or higher and lower than 20%) | 5 (Herbicidal ratio of 90% or more (almost completely withered)) | 0 (Herbicidal ratio of 5% or lower (almost no effect)) | 2 (Herbicidal ratio of 20% or higher and lower than 40%) | 0 (Herbicidal ratio of 5% or lower (almost no effect)) | 0 (Herbicidal ratio of 5% or lower (almost no effect)) | 5 (Herbicidal ratio of 90% or more (almost completely withered)) | 0 (Herbicidal ratio of 5% or lower (almost no effect))
3 | CON=C(CC1CC(O)=C(c2c(C)cc(C)cc2C)C1=O)C(C)(C)C (stereo not drawn) [1-059] | 4 (Herbicidal ratio of 70% or higher and lower than 90%) | 4 (Herbicidal ratio of 70% or higher and lower than 90%) | 0 (Herbicidal ratio of 5% or lower (almost no effect)) | – | 0 (Herbicidal ratio of 5% or lower (almost no effect)) | 0 (Herbicidal ratio of 5% or lower (almost no effect)) | 1 (Herbicidal ratio of 5% or higher and lower than 20%) | 0 (Herbicidal ratio of 5% or lower (almost no effect)) | 3 (Herbicidal ratio of 40% or higher and lower than 70%) | 4 (Herbicidal ratio of 70% or higher and lower than 90%) | 1 (Herbicidal ratio of 5% or higher and lower than 20%) | 4 (Herbicidal ratio of 70% or higher and lower than 90%) | 0 (Herbicidal ratio of 5% or lower (almost no effect)) | 0 (Herbicidal ratio of 5% or lower (almost no effect)) | 4 (Herbicidal ratio of 70% or higher and lower than 90%) | 0 (Herbicidal ratio of 5% or lower (almost no effect))
4 | CON=C(CC1CC(OC(=O)COc2ccccc2)=C(c2c(C)cc(C)cc2C)C1=O)C1CC1 (stereo not drawn) [1-063] | 5 (Herbicidal ratio of 90% or more (almost completely withered)) | 5 (Herbicidal ratio of 90% or more (almost completely withered)) | 3 (Herbicidal ratio of 40% or higher and lower than 70%) | 0 (Herbicidal ratio of 5% or lower (almost no effect)) | 4 (Herbicidal ratio of 70% or higher and lower than 90%) | 0 (Herbicidal ratio of 5% or lower (almost no effect)) | 1 (Herbicidal ratio of 5% or higher and lower than 20%) | 3 (Herbicidal ratio of 40% or higher and lower than 70%) | 5 (Herbicidal ratio of 90% or more (almost completely withered)) | 5 (Herbicidal ratio of 90% or more (almost completely withered)) | 2 (Herbicidal ratio of 20% or higher and lower than 40%) | 4 (Herbicidal ratio of 70% or higher and lower than 90%) | 0 (Herbicidal ratio of 5% or lower (almost no effect)) | 2 (Herbicidal ratio of 20% or higher and lower than 40%) | 5 (Herbicidal ratio of 90% or more (almost completely withered)) | –
5 | CON=C(C)CC1CC(OC(=O)COc2ccccc2[N+](=O)[O-])=C(c2c(C)cc(C)cc2C)C1=O (stereo not drawn) [1-071] | 5 (Herbicidal ratio of 90% or more (almost completely withered)) | 5 (Herbicidal ratio of 90% or more (almost completely withered)) | 4 (Herbicidal ratio of 70% or higher and lower than 90%) | 0 (Herbicidal ratio of 5% or lower (almost no effect)) | 1 (Herbicidal ratio of 5% or higher and lower than 20%) | 0 (Herbicidal ratio of 5% or lower (almost no effect)) | 5 (Herbicidal ratio of 90% or more (almost completely withered)) | 4 (Herbicidal ratio of 70% or higher and lower than 90%) | 5 (Herbicidal ratio of 90% or more (almost completely withered)) | 5 (Herbicidal ratio of 90% or more (almost completely withered)) | 4 (Herbicidal ratio of 70% or higher and lower than 90%) | 5 (Herbicidal ratio of 90% or more (almost completely withered)) | 0 (Herbicidal ratio of 5% or lower (almost no effect)) | 4 (Herbicidal ratio of 70% or higher and lower than 90%) | 5 (Herbicidal ratio of 90% or more (almost completely withered)) | –
